Data as given in the supplement of paper PMC10307832.

Experiments:
Experiment in all cases: relative viability (nuclei count vs DMSO), 5 days (fraction); higher = more cells survive
Zosuquidar + Luminespib = compound: O[C@@H](COc1cccc2ncccc12)CN1CCN([C@@H]2c3ccccc3[C@@H]3[C@H](c4ccccc42)C3(F)F)CC1 [Zosuquidar] + CCNC(=O)c1noc(-c2cc(C(C)C)c(O)cc2O)c1-c1ccc(CN2CCOCC2)cc1 [Luminespib] (partner 0.01 µM)
Outline: (§1)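 For relative viability, nuclei counts in treated wells were divided by those in vehicle wells. Lung cancer cell lines had been pin-tool dosed in 1536-well plates the day after seeding and cultured for 5 days, then fixed and stained in one step (final 0.05% Triton X-100, 1% formaldehyde, 1 ug/ml Hoechst) and imaged at 4×. Doses were one drug alone or a fixed anchor-drug dose plus five library-drug doses (not always all listed) in √10 steps, and values are duplicate-plate medians.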

Cabozantinib + Alpelisib = compound: COc1cc2nccc(Oc3ccc(NC(=O)C4(C(=O)Nc5ccc(F)cc5)CC4)cc3)c2cc1OC [Cabozantinib] + Cc1nc(NC(=O)N2CCC[C@H]2C(N)=O)sc1-c1ccnc(C(C)(C)C(F)(F)F)c1 [Alpelisib] (partner 2 µM)
Outline: as §1

Kobe2602 + Palbociclib = compound: C1=CC(=CC=C1NC(=S)NNC2=C(C=C(C=C2[N+](=O)[O-])C(F)(F)F)[N+](=O)[O-])F [Kobe2602] + CC(=O)c1c(C)c2cnc(Nc3ccc(N4CCNCC4)cn3)nc2n(C2CCCC2)c1=O [Palbociclib] (partner 0.5 µM)
Outline: as §1

[1] = compound: COc1cc2nccc(Oc3ccc(NC(=O)C4(C(=O)Nc5ccc(F)cc5)CC4)cc3)c2cc1OC [Cabozantinib] + CC(=O)Nc1cccc(-n2c(=O)n(C3CC3)c(=O)c3c(Nc4ccc(I)cc4F)n(C)c(=O)c(C)c32)c1 [Trametinib] (partner 0.02 µM)
Outline: as §1

Row | Cell Line | relative viability (Zosuquidar + Luminespib; first compound 0.01 µM) | relative viability (Zosuquidar + Luminespib; first compound 0.03162 µM) | relative viability (Zosuquidar + Luminespib; first compound 0.1 µM) | relative viability (Zosuquidar + Luminespib; first compound 0.3162 µM) | relative viability (Zosuquidar + Luminespib; first compound 1 µM) | relative viability (Cabozantinib + Alpelisib; first compound 0.02 µM) | relative viability (Cabozantinib + Alpelisib; first compound 0.06325 µM) | relative viability (Cabozantinib + Alpelisib; first compound 0.2 µM) | relative viability (Cabozantinib + Alpelisib; first compound 0.6325 µM) | relative viability (Cabozantinib + Alpelisib; first compound 2 µM) | relative viability (Kobe2602 + Palbociclib; first compound 0.6325 µM) | relative viability (Kobe2602 + Palbociclib; first compound 2 µM) | relative viability (Kobe2602 + Palbociclib; first compound 6.325 µM) | relative viability (Kobe2602 + Palbociclib; first compound 20 µM) | relative viability ([1]; first compound 0.02 µM) | relative viability ([1]; first compound 0.06325 µM) | relative viability ([1]; first compound 0.2 µM) | relative viability ([1]; first compound 0.6325 µM) | relative viability ([1]; first compound 2 µM) | relative viability (Kobe2602 + Palbociclib; first compound 0.2 µM)
1 | NCI-H460 | 0.0346 | 0.0269 | 0.0352 | 0.0358 | 0.0277 | 0.667 | 0.61 | 0.459 | 0.579 | 0.483 | 0.22 | 0.184 | 0.145 | 0.176 | 0.133 | 0.196 | 0.134 | 0.159 | 0.174 | –
2 | NCI-H3122 | 0.095 | 0.0891 | 0.0947 | 0.0965 | 0.0865 | 0.875 | 0.778 | 0.731 | 0.97 | 0.956 | 0.169 | 0.194 | 0.201 | 0.212 | 0.192 | 0.241 | 0.238 | 0.238 | 0.281 | 0.184
3 | HCC-44 | 1.14 | 1.16 | 1.17 | 1.01 | 1.08 | 0.864 | 0.784 | 0.808 | 0.757 | 0.855 | 0.932 | 0.975 | 0.924 | 0.887 | 1.04 | 1.15 | 1.21 | 1.06 | 1.04 | 0.988
4 | HCC-78 | – | – | – | – | – | 0.26 | 0.298 | 0.227 | 0.201 | 0.198 | 0.446 | 0.479 | 0.535 | 0.52 | – | 0.515 | 0.412 | 0.318 | 0.321 | 0.522
